Test results: the NIST ThermoML archive (doi:10.1021/acs.jced.6b00430)
± gives the expanded uncertainty stated by the source.

Columns and labels:
[1] = xn = mol fraction of the nth substance listed; conditions: 100 kPa, Liquid, x2 = 0; for mass density: Vibrating tube method
[2] = 100 kPa, Liquid; for viscosity: Concentric cylinders viscometry; for mass density: Vibrating tube method

SMILES: CN(C)C=O [dimethylformamide] + O=[PH](O)O
- viscosity ([1]; 298.15 K, Concentric cylinders viscometry): 0.783 ± 0.047 mPa·s
- mass density ([1]; 298.15 K): 943.92 ± 10 kg/m3
- viscosity ([1]; 308.15 K, Concentric cylinders viscometry): 0.699 ± 0.042 mPa·s
- mass density ([1]; 308.15 K): 934.35 ± 10 kg/m3
- viscosity ([1]; 318.15 K, Concentric cylinders viscometry): 0.623 ± 0.038 mPa·s
- mass density ([1]; 318.15 K): 924.72 ± 10 kg/m3
- viscosity ([1]; 328.15 K, Concentric cylinders viscometry): 0.555 ± 0.034 mPa·s
- mass density ([1]; 328.15 K): 915.06 ± 10 kg/m3
- viscosity ([1]; 338.15 K, Concentric cylinders viscometry): 0.495 ± 0.03 mPa·s
- mass density ([1]; 338.15 K): 905.35 ± 10 kg/m3
- mass density ([1]; 348.15 K): 895.57 ± 10 kg/m3

SMILES: CN(C)C=O [dimethylformamide]
- viscosity ([2]; 298.15 K): 0.783 ± 0.047 mPa·s
- mass density ([2]; 298.15 K): 943.92 ± 10 kg/m3
- viscosity ([2]; 308.15 K): 0.699 ± 0.042 mPa·s
- mass density ([2]; 308.15 K): 934.35 ± 10 kg/m3
- viscosity ([2]; 318.15 K): 0.623 ± 0.038 mPa·s
- mass density ([2]; 318.15 K): 924.72 ± 10 kg/m3
- viscosity ([2]; 328.15 K): 0.555 ± 0.034 mPa·s
- mass density ([2]; 328.15 K): 915.06 ± 10 kg/m3
- viscosity ([2]; 338.15 K): 0.495 ± 0.03 mPa·s
- mass density ([2]; 338.15 K): 905.35 ± 10 kg/m3
- mass density ([2]; 348.15 K): 895.57 ± 10 kg/m3

SMILES: O [water] + O=[PH](O)O
- viscosity ([1]; 298.15 K, Capillary tube (Ostwald / Ubbelohde) method): 0.89 ± 0.054 mPa·s
- viscosity ([1]; 308.15 K, Capillary tube (Ostwald / Ubbelohde) method): 0.719 ± 0.043 mPa·s
- viscosity ([1]; 318.15 K, Capillary tube (Ostwald / Ubbelohde) method): 0.596 ± 0.036 mPa·s
- viscosity ([1]; 328.15 K, Capillary tube (Ostwald / Ubbelohde) method): 0.504 ± 0.03 mPa·s
- mass density ([1]; 328.15 K): 985.69 ± 10 kg/m3
- viscosity ([1]; 338.15 K, Capillary tube (Ostwald / Ubbelohde) method): 0.434 ± 0.026 mPa·s
- mass density ([1]; 338.15 K): 980.55 ± 10 kg/m3

SMILES: O [water]
- viscosity ([2]; 298.15 K): 0.89 ± 0.054 mPa·s
- viscosity ([2]; 308.15 K): 0.719 ± 0.044 mPa·s
- viscosity ([2]; 318.15 K): 0.596 ± 0.036 mPa·s
- viscosity ([2]; 328.15 K): 0.504 ± 0.031 mPa·s
- mass density ([2]; 328.15 K): 985.69 ± 10 kg/m3
- viscosity ([2]; 338.15 K): 0.434 ± 0.026 mPa·s
- mass density ([2]; 338.15 K): 980.55 ± 10 kg/m3
